Where no end group is shown, it is not given here.

These results are taken from patent US20220202943A1, “TOPICAL COMPOSITIONS FOR SKIN COMPRISING A CELL PENETRATING PEPTIDE AND METHODS OF USING THE SAME” (ImDerma Laboratories Co. Ltd., priority 2020, published 2022).

Common to all, as to format: cell-based, human
Series [1] has as its system type I pro-collagen. Nature of the series: Type I pro-collagen level in Hs68 cells, ELISA. The note with it: TGF-β 10 ng/mL. The protocol:
In order to confirm if the peptide X is capable of delivering TGF-β into skin cells, Hs68 cells were seeded in a 6-well plate. Following the removal the medium in the 6-well plate, TGF-β (10 ng/mL), peptide X (1.0 μM) or a mixture of TGF-β (10 ng/mL) and peptide X (1.0 μM) were added in the 6-well plate. After 6, 12 or 24 hours of reaction, the level of type I pro-collagen in the cells was confirmed using ELISA kit with human pro-collagen 1 alpha 1 capture antibody and human pro-collagen 1 alpha 1 detector antibody.
For orientation: An ELISA detects its analyte on a solid surface through an enzyme-linked reagent.

Series [2] concerns HaCaT cells. Nature of the series: Intracellular ROS induced by H2O2 in HaCaT cells, DCFDA fluorescence assay. The method, then:
(§1) Following the removal of DMEM medium in the 96-well plate, 100 uL of 1 μM peptide X and 100 uL of tea polyphenols (0.01%, 0.05% or 0.1%), were added in the 96-well plate. After 2, 4, 6, 16 or 24 hours of reaction, the peptide X and tea polyphenols were removed and then DMEM medium with 1.2 mM H2O2 was added for 2 hours of reaction in dark to induce intracellular ROS in the HaCaT cells. After the above reaction, DMEM medium with 1.2 mM H2O2 was removed from the 96-well plate and 100 μL of 10 μM DCFDA (2′,7′—dichlorofluorescin diacetate) was added for half an hour of reaction to measure the levels of intracellular ROS in HaCaT cells using fluorescence assay. Following the removal of DCFDA, the treated cells were washed with 200 μL of PBS. Subsequently, after PBS was removed, 100 μL of transparent DMEM medium was added and absorbance at 488/520 nm was measured to determinate the levels of intracellular ROS. After the above measurement, the transparent DMEM medium was removed and then 100 μL of 1 mg/mL MTT was added for 2 hours of reaction; subsequently, the absorbance at 595 nm was measured for calculating the cell viability.
EUK134™ (0.12 μM, 0.23 μM or 2.35 μM) or a mixture of peptide X (1 μM) and EUK134™ (0.12 μM or 0.23 μM), were added in HaCaT cells for 8 hours of reaction. Following the removal of EUK134™ and the mixture of peptide X and EUK134™, 1.2 mM H2O2 was added to induce intracellular ROS in the HaCaT cells and then the levels of intracellular ROS were detected using DCFDA. After the detection of the levels of intracellular ROS, the cell viability was confirmed using MTT assay.
Resveratrol (6.25 μM, 12.5 μM or 25 μM) or a mixture of peptide X (1 μM) and resveratrol (6.25 μM, 12.5 μM or 25 μM), were added in HaCaT cells for different time of reaction. Following the removal of resveratrol and the mixture of peptide X and resveratrol, 1.2 mM H2O2 was added to induce intracellular ROS in the HaCaT cells and then the levels of intracellular ROS were detected using DCFDA. After the detection of the levels of intracellular ROS, the cell viability was confirmed using MTT assay.

In series [3] the test system is HaCaT cells. Nature of the series: Cell viability of HaCaT cells, MTT assay. The note with it: 1.0 μM peptide X. The method, then: as §1
EUK134™ (0.12 μM, 0.23 μM or 2.35 μM) or a mixture of peptide X (1 μM) and EUK134™ (0.12 μM or 0.23 μM), were added in HaCaT cells for 8 hours of reaction. […]

In the case of TGF-β, the “increase of expression of type I pro-collagen” value in series [1] was about 20%. Regarding “ethylbisiminomethylguaiacol manganese chloride [EUK134™]”, the “reduction of level of intracellular ROS induced by H2O2” value in series [2] (0.12 μM EUK134 without peptide X, 8 hours of treatment) turned out to be 50%. Besides, the “reduction of level of intracellular ROS” value in series [2] (0.23 μM EUK134 without peptide X, 8 hours of treatment) is on record as 50%. In addition, in series [2] (EUK134 0.12, 0.23 or 2.35 μM without peptide X, with the increase of concentration, 8 hours), the “level of intracellular ROS induced by H2O2” value is listed as “slightly decreased”. As for `Oc1ccc(/C=C/c2cc(O)cc(O)c2)cc1` [resveratrol, reference compound], the “reduction of level of intracellular ROS induced by H2O2” value in series [2] (resveratrol 6.25, 12.5 or 25 μM without peptide X, no significant difference among concentrations) is given as 75˜80%. As to “NYRWRCKNQN [peptide X, Asn-Tyr-Arg-Trp-Arg-Cys-Lys-Asn-Gln-Asn]”, the “cytotoxicity to HaCaT cells” value in series [3] is given as “no cytotoxicity”.
